The assay deals with T1, non-endogenous version of the MCH receptor (MCH-IC3-SST2) (Homo sapiens, UniProt Q99705, A240I/A242V/I247R/L249K/M235V/P241R/Q244S/R234K/R245S/R248K/R250S/R253K/S243G/S246K/T236K/T251E/V239G).
T1 construct: creating a MCH-IC3-SST2 mutation (see); expressed in transfected cells; cultured with 0.5 mg/ml G418, so I infer a stably transfected line
Description: FLIPR/FDSS6000 functional assay: intracellular Ca2+ changes evoked by MCH. Format: cell-based. Particulars: antagonist activity; 50 nM of MCH; transient changes in [Ca2+]i monitored by FLIPR or FDSS. The text has this:
Subsequently, a functional based assay was used to confirm the lead hits, referred to as FLIPR™ (the Fluorometric Imaging Plate Reader) and FDSS6000™ (Functional Drug Screening System). This assay utilized a non-endogenous version of the MCH receptor, which was created by swapping the third intracellular loop of the MCH receptor with that of the SST2 receptor (see Example 2(B)(2) of patent application Ser. No. 09/826,509).
The FLIPR and FDSS assays are able to detect intracellular Ca^2+ concentration in cells, which can be utilized to assess receptor activation and determine whether a candidate compound is an, for example, antagonist, inverse agonist or agonist to a Gq-coupled receptor. The concentration of free Ca^2+ in the cytosol of any cell is extremely low, whereas its concentration in the extracellular fluid and endoplasmic reticulum (ER) is very high. Thus, there is a large gradient tending to drive Ca^2+ into the cytosol across both the plasma membrane and ER. […]
To confirm the lead hits identified using the [^35S]GTPγS assay, Fluorometric Imaging Plate Reader system was used to allow for rapid, kinetic measurements of intracellular fluorescence in 96 well microplates (or 384 well microplates). Simultaneous measurements of fluorescence in all wells can be made by FLIPR or FDSS6000™, every second with high sensitivity and precision. […]

Molecules are shown by their SMILES. Where a name gives a salt, the structure may show the parent alone.

T1 sequence (Q99705 1-353 with the stated changes): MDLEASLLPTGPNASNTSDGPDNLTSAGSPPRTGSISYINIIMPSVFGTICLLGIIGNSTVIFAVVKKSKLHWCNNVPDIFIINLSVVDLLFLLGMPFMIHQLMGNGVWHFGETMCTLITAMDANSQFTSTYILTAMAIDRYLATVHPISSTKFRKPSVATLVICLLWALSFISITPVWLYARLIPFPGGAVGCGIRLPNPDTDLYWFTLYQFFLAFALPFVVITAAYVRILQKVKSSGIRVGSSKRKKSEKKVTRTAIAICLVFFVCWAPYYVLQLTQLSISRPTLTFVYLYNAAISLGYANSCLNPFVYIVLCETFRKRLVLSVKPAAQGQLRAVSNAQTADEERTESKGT

As a reminder, the IC50 is the concentration that gives 50% inhibition. Low readings indicate greater potency in that assay, high ones weaker potency in that assay. The compound `CN(C)c1nc(N[C@H]2CC[C@@H](CNCc3ccc(Br)cc3OC(F)(F)F)CC2)nc2ccccc12` [Example 41, cis-N^2-{4-[(4-Bromo-2-trifluoromethoxy-benzylamino)-methyl]-cyclohexyl}-N^4,N^4-dimethyl-quinazoline-2,4-diamine dihydrochloride] came in with an IC50 of 6 nM.

Compound `CN(C)c1nc(N[C@H]2CC[C@@H](CNCc3ccccc3OC(F)(F)F)CC2)nc2ccccc12` [Example 42, cis-N^4,N^4-Dimethyl-N^2-{4-[(2-trifluoromethoxy-benzylamino)-methyl]-cyclohexyl}-quinazoline-2,4-diamine dihydrochloride] showed an IC50 of 19 nM.

(Values after US7544690B2, “MCH receptor antagonists” (Taisho Pharmaceutical Co., Ltd., priority 2001, dated 2009).)
